Laboratory results taken from ChEMBL document CHEMBL3774345, “Synthesis of new diarylamides with pyrimidinyl pyridine scaffold and evaluation of their anti-proliferative effect on cancer cell lines” (Bioorg Med Chem Lett, 2016).

Columns and labels:
[1] = Cytotoxicity against human HOP62 cells assessed as cell growth at 10^-7 M after 24 hrs by SRB assay; assay type: functional; conditions: HOP-62, 24 h, read-out: Activity
SK-MEL-5 [2] = assay: Cytotoxicity against human SK-MEL-5 cells assessed as cell growth at 10^-7 M after 24 hrs by SRB assay; assay type: functional; conditions: SK-MEL-5, 24 h, read-out: Activity
A498 [3] = assay: Cytotoxicity against human A498 cells assessed as cell growth at 10^-7 M after 24 hrs by SRB assay; assay type: functional; conditions: A498, 24 h, read-out: Activity
[4] = Cytotoxicity against human HCC2998 cells assessed as cell growth at 10^-4 M after 24 hrs by SRB assay; assay type: functional; conditions: HCC 2998, 24 h, read-out: Activity
[5] = Cytotoxicity against human SF295 cells assessed as cell growth at 10^-4 M after 24 hrs by SRB assay; assay type: functional; conditions: SF-295, 24 h, read-out: Activity
MDA-MB-435 [6] = assay: Cytotoxicity against human MDA-MB-435 cells after 24 hrs by SRB assay; assay type: functional, cell-based; conditions: MDA-MB-435, 24 h
[7] = Cytotoxicity against human RPMI8226 cells assessed as cell growth at 10^-6 M after 24 hrs by SRB assay; assay type: functional; conditions: RPMI-8226, 24 h, read-out: Activity
[8] = Cytotoxicity against human OVCAR3 cells assessed as cell growth at 10^-4 M after 24 hrs by SRB assay; assay type: functional; conditions: OVCAR-3, 24 h, read-out: Activity
[9] = Cytotoxicity against human OVCAR4 cells assessed as cell growth at 10^-4 M after 24 hrs by SRB assay; assay type: functional; conditions: OVCAR-4, 24 h, read-out: Activity
[10] = Cytotoxicity against human OVCAR8 cells assessed as cell growth at 10^-4 M after 24 hrs by SRB assay; assay type: functional; conditions: OVCAR-8, 24 h, read-out: Activity
NCI-H322M = assay: Cytotoxicity against human NCI-H322M cells assessed as cell growth at 10^-6 M after 24 hrs by SRB assay; assay type: functional; conditions: read-out: Activity
[11] = Cytotoxicity against human HCC2998 cells assessed as cell growth at 10^-6 M after 24 hrs by SRB assay; assay type: functional; conditions: HCC 2998, 24 h, read-out: Activity
SK-MEL-28 = assay: Cytotoxicity against human SK-MEL-28 cells assessed as cell growth at 10^-6 M after 24 hrs by SRB assay; assay type: functional; conditions: SK-MEL-28, 24 h, read-out: Activity
[12] = Cytotoxicity against human OVCAR4 cells assessed as cell growth at 10^-6 M after 24 hrs by SRB assay; assay type: functional; conditions: OVCAR-4, 24 h, read-out: Activity
[13] = Cytotoxicity against human OVCAR8 cells assessed as cell growth at 10^-6 M after 24 hrs by SRB assay; assay type: functional; conditions: OVCAR-8, 24 h, read-out: Activity
A498 [14] = assay: Cytotoxicity against human A498 cells assessed as cell growth at 10^-6 M after 24 hrs by SRB assay; assay type: functional; conditions: A498, 24 h, read-out: Activity
ACHN = assay: Cytotoxicity against human ACHN cells assessed as cell growth at 10^-6 M after 24 hrs by SRB assay; assay type: functional; conditions: read-out: Activity
[15] = Cytotoxicity against human Hs 578T cells assessed as cell growth at 10^-6 M after 24 hrs by SRB assay; assay type: functional; conditions: read-out: Activity
SK-MEL-5 [16] = assay: Cytotoxicity against human SK-MEL-5 cells after 24 hrs by SRB assay; assay type: functional, cell-based; conditions: SK-MEL-5, 24 h
[17] = Cytotoxicity against human UACC62 cells after 24 hrs by SRB assay; assay type: functional, cell-based; conditions: UACC-62, 24 h
[18] = Cytotoxicity against human IGROV1 cells after 24 hrs by SRB assay; assay type: functional; conditions: IGROV-1, 24 h
[19] = Cytotoxicity against human OVCAR5 cells after 24 hrs by SRB assay; assay type: functional; conditions: OVCAR-5, 24 h
A498 [20] = assay: Cytotoxicity against human A498 cells after 24 hrs by SRB assay; assay type: functional; conditions: A498, 24 h
[21] = Cytotoxicity against human RPMI8226 cells assessed as cell growth at 10^-8 M after 24 hrs by SRB assay; assay type: functional; conditions: RPMI-8226, 24 h, read-out: Activity
[22] = Cytotoxicity against human HCC2998 cells assessed as cell growth at 10^-8 M after 24 hrs by SRB assay; assay type: functional; conditions: HCC 2998, 24 h, read-out: Activity
[23] = Cytotoxicity against human HCT15 cells assessed as cell growth at 10^-8 M after 24 hrs by SRB assay; assay type: functional; conditions: HCT-15, 24 h, read-out: Activity
MDA-MB-435 [24] = assay: Cytotoxicity against human MDA-MB-435 cells assessed as cell growth at 10^-8 M after 24 hrs by SRB assay; assay type: functional; conditions: MDA-MB-435, 24 h, read-out: Activity
SK-MEL-5 [25] = assay: Cytotoxicity against human SK-MEL-5 cells assessed as cell growth at 10^-8 M after 24 hrs by SRB assay; assay type: functional; conditions: SK-MEL-5, 24 h, read-out: Activity
T47D = assay: Cytotoxicity against human T47D cells assessed as cell growth at 10^-6 M after 24 hrs by SRB assay; assay type: functional; conditions: read-out: Activity
CCRF-CEM = assay: Cytotoxicity against human CCRF-CEM cells assessed as cell growth at 10^-5 M after 24 hrs by SRB assay; assay type: functional; conditions: read-out: Activity
EKVX = assay: Cytotoxicity against human EKVX cells assessed as cell growth at 10^-5 M after 24 hrs by SRB assay; assay type: functional; conditions: read-out: Activity
NCI-H226 = assay: Cytotoxicity against human NCI-H226 cells assessed as cell growth at 10^-5 M after 24 hrs by SRB assay; assay type: functional; conditions: NCI-H226, 24 h, read-out: Activity
Malme-3M = assay: Cytotoxicity against human MALME-3M cells assessed as cell growth at 10^-5 M after 24 hrs by SRB assay; assay type: functional; conditions: read-out: Activity
MCF7 = assay: Cytotoxicity against human MCF7 cells assessed as cell growth at 10^-5 M after 24 hrs by SRB assay; assay type: functional; conditions: MCF7, 24 h, read-out: Activity
K562 = assay: Cytotoxicity against human K562 cells assessed as cell growth at 10^-4 M after 24 hrs by SRB assay; assay type: functional; conditions: K562, 24 h, read-out: Activity
[26] = read-out: LC50 (the source's name)
[27] = read-out: pLC50 (the source's name) (converted)

O=C(Nc1cc(-c2cccnc2)nc(NCCCN2CCOCC2)n1)c1cc(Br)cc(C(F)(F)F)c1
growth at 0.1 µM [1]: 85%
growth at 0.1 µM (SK-MEL-5 [2]): 95%
growth at 0.1 µM (A498 [3]): 92%
growth at 100 µM [4]: -97%
growth at 100 µM [5]: -92%
IC50 (MDA-MB-435 [6]): 1.66 µM
GI50 (MDA-MB-435 [6]; read-out: GI50): 1.66 µM
CC50 (MDA-MB-435 [6]; [26]): 5.98 µM
TGI (MDA-MB-435 [6]; read-out: TGI): 3.15 µM
GI50 (MDA-MB-435 [6]; read-out: pGI50 (converted)): 1.66 µM
CC50 (MDA-MB-435 [6]; [27]): 6.03 µM
TGI (MDA-MB-435 [6]; read-out: pTGI (converted)): 3.16 µM
growth at 1 µM [7]: 101%
growth at 100 µM [8]: -100%
growth at 100 µM [9]: -95%
growth at 100 µM [10]: -79%
growth at 1 µM (NCI-H322M): 91%
growth at 1 µM [11]: 92%
growth at 1 µM (SK-MEL-28): 89%
growth at 1 µM [12]: 84%
growth at 1 µM [13]: 102%
growth at 1 µM (A498 [14]): 92%
growth at 1 µM (ACHN): 92%
growth at 1 µM [15]: 94%
IC50 (SK-MEL-5 [16]): 1.62 µM
GI50 (SK-MEL-5 [16]; read-out: GI50): 1.64 µM
CC50 (SK-MEL-5 [16]; [26]): 5.56 µM
TGI (SK-MEL-5 [16]; read-out: TGI): 3.02 µM
GI50 (SK-MEL-5 [16]; read-out: pGI50 (converted)): 1.66 µM
CC50 (SK-MEL-5 [16]; [27]): 5.62 µM
TGI (SK-MEL-5 [16]; read-out: pTGI (converted)): 3.02 µM
GI50 [17]: 1.95 µM
CC50 [17, 26]: 9.92 µM
TGI ([17]; read-out: TGI): 4.38 µM
CC50 [17, 27]: 10 µM
TGI ([17]; read-out: pTGI (converted)): 4.37 µM
GI50 ([18]; read-out: GI50): 4.67 µM
CC50 [18, 26]: 60.5 µM
TGI ([18]; read-out: TGI): 19.5 µM
GI50 ([18]; read-out: pGI50 (converted)): 4.68 µM
CC50 [18, 27]: 60.3 µM
TGI ([18]; read-out: pTGI (converted)): 19.5 µM
GI50 ([19]; read-out: GI50): 6.33 µM
CC50 [19, 26]: 69.1 µM
TGI ([19]; read-out: TGI): 23.5 µM
GI50 ([19]; read-out: pGI50 (converted)): 6.31 µM
CC50 [19, 27]: 69.2 µM
TGI ([19]; read-out: pTGI (converted)): 23.4 µM
GI50 (A498 [20]; read-out: GI50): 3.43 µM
CC50 (A498 [20]; [26]): 40.5 µM
TGI (A498 [20]; read-out: TGI): 13.4 µM
GI50 (A498 [20]; read-out: pGI50 (converted)): 3.39 µM
CC50 (A498 [20]; [27]): 40.7 µM
TGI (A498 [20]; read-out: pTGI (converted)): 13.5 µM
growth at 0.01 µM [21]: 103%
growth at 0.01 µM [22]: 96%
growth at 0.01 µM [23]: 91%
growth at 0.01 µM (MDA-MB-435 [24]): 96%
growth at 0.01 µM (SK-MEL-5 [25]): 95%
growth at 1 µM (T47D): 88%
growth at 10 µM (CCRF-CEM): 6%
growth at 10 µM (EKVX): 17%
growth at 10 µM (NCI-H226): 49%
growth at 10 µM (Malme-3M): -72%
growth at 10 µM (MCF7): -3%
growth at 100 µM (K562): -7%
